In patent US20060110790A1, “Expression system for large functional proteins” (priority 2002, published 2006):

Target: T1, N-half co-expressed with the K1978M C-half mutant of ABCR (Homo sapiens, UniProt P78363, K1978M)
T1 construct: The cDNAs coding for the N-half (amino acids 1-1325) and C-half (amino acids 1326-2273) of ABCR; made in house
T1 sequence (P78363 1-1325): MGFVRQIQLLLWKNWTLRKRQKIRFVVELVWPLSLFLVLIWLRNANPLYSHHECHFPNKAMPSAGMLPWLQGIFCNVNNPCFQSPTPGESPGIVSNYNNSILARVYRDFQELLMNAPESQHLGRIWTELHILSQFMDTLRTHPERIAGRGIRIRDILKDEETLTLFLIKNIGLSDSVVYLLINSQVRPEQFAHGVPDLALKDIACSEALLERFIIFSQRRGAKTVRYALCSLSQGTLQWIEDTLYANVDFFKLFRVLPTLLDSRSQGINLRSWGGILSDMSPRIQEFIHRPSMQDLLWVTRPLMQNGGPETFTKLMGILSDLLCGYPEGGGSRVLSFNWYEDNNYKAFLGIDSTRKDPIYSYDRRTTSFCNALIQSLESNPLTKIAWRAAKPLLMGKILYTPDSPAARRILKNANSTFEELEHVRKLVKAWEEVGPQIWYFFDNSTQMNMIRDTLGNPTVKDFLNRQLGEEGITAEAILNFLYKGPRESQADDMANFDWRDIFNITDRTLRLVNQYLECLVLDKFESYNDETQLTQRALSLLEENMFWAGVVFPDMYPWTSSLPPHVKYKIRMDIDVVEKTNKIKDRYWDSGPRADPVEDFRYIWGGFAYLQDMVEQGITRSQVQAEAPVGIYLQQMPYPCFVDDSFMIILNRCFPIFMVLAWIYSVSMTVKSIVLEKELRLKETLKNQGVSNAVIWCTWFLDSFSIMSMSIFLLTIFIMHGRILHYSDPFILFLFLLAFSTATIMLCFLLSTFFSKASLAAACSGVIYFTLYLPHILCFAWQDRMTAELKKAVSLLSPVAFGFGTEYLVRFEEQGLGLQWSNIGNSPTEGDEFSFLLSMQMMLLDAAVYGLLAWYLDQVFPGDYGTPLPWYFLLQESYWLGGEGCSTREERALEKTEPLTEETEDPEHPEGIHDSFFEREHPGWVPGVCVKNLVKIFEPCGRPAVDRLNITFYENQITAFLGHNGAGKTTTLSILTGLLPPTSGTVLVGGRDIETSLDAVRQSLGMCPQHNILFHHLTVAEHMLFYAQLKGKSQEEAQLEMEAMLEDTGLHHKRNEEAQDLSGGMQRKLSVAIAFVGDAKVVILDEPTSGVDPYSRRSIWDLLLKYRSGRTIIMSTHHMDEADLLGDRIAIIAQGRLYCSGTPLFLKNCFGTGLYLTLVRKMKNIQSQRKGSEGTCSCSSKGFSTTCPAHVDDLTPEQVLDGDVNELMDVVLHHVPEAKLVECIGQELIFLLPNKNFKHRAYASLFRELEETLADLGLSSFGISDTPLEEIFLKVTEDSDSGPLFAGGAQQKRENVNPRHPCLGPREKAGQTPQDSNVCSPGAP
T1 sequence (P78363 1326-2273 K1978M): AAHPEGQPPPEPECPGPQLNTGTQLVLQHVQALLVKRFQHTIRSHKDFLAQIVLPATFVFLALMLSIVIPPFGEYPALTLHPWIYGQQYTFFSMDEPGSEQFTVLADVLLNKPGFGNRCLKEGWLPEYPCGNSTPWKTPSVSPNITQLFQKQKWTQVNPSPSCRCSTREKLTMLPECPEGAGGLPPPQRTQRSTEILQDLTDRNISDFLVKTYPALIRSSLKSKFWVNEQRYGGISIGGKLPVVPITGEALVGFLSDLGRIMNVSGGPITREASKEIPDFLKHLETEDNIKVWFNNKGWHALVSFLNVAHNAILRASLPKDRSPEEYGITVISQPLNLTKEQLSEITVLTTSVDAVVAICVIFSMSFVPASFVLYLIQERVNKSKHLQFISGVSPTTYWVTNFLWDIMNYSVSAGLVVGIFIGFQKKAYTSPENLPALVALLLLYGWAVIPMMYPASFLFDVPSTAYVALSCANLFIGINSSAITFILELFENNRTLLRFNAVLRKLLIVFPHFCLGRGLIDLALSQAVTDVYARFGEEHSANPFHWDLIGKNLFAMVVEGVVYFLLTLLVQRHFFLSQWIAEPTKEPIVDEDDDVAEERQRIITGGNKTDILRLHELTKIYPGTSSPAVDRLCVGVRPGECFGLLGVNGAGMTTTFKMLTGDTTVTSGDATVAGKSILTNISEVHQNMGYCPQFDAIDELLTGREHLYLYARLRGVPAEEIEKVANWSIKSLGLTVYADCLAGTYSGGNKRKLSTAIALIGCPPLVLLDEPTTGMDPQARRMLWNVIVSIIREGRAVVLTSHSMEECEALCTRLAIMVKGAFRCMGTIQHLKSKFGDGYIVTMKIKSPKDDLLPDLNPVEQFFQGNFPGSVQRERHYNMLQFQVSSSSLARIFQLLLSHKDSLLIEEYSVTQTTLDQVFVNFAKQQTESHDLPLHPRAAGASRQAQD
Assay: ATPase activity of Walker A lysine-to-methionine mutants
Format: biochemical
Conditions: 50 μM all-trans retinal
Procedure: FIG. 4. Lysine to methionine Walker A mutations in ABCR abolish ATP hydrolysis but not ATP binding. A. ATPase activity was measured in the absence (white bars) or presence of 50 μM all-trans retinal (grey bars). WT, wild-type; K969M in NBD1; K1978M in NBD2; MM, K969M/K1978M double mutant; NCM, N-half co-expressed with C-half containing a K1978M mutation. B. ATP photoaffinity labeling was carried out by irradiating membranes from COS-1 cells expressing wild-type (WT), K969M, K1978M, or K969M/K1978M double mutant (MM) with 3 μM 8-azido-[α-^32P]ATp. The labeled protein was isolated with Rim3F4-Sepharose and separated on SDS gels. Left panel: gel stained with Coomassie blue. Right panel: corresponding ^32P labeling obtained with a phosphorimager. All mutant proteins were labeled with 8-azido-[α-^32P]ATP, but the double mutant bound less nucleotide.
ATPase activity was measured as described previously (Ahn, J., Wong, J. T., and Molday, R. S. (2000) J Biol Chem 275(27), 20399-405) using 50 μM [α^32P]ATP and thin layer chromatography. The all-trans retinal concentration was determined spectrophotometrically (λ383 nm=42.88 mM^−1 cm^−1). Protein concentration was estimated from the eluate before reconstitution by laser densitometry of Coomassie blue stained gels using bovine serum albumin as a standard. […]

For `CC1=C(/C=C/C(C)=C/C=C/C(C)=C/C=O)C(C)(C)CCC1` [all-trans retinal], the “retinal-stimulated ATPase activity” value was “abolished”.
